From the CheMixHub ionic liquid set
± gives the uncertainty stated by the source.

Assay: xn = mol fraction of the nth substance listed

CCCC[n+]1ccn(C)c1.O=S(=O)([N-]S(=O)(=O)C(F)(F)F)C(F)(F)F + ClCCl
viscosity (298 K, 101 kPa, x2 = 0): 50.4 ± 1.9 mPa·s

CCCC[n+]1ccn(C)c1.F[P-](F)(F)(F)(F)F + c1ccncc1
electrical conductivity (298.15 K, 101 kPa, x2 = 0.4915): 0.819 ± 0.098 S/m
viscosity (298.15 K, 101 kPa, x2 = 0.4915): 21.8 ± 2.2 mPa·s

CC#N + C[N+](C)(C)CCC[n+]1ccccc1.N#C[N-]C#N.N#C[N-]C#N
viscosity (328.15 K, 100 kPa, x2 = 0): 0.275 ± 0.028 mPa·s
viscosity (333.15 K, 100 kPa, x2 = 0): 0.266 ± 0.027 mPa·s

CCCC[n+]1ccn(C)c1.O=S(=O)([N-]S(=O)(=O)C(F)(F)F)C(F)(F)F + CCCCCO
viscosity (298 K, 100 kPa, x1 = 1): 49.7 ± 1.3 mPa·s

CN(C)C=O + CCCC[n+]1ccn(C)c1.F[P-](F)(F)(F)(F)F
viscosity (303.15 K, 101 kPa, x1 = 1): 0.82 ± 0.02 mPa·s
